# Source: US7160684B2, “Methods of selecting compounds for modulation of bladder function” (Wyeth, priority 2000, dated 2007)
# Tested on: isolated rat bladder smooth muscle cell
# Test: Voltage clamp recording of outward current, rat cells
# Type: cell-based
# Conditions: test potentials between −50 and 80 mV; n=5
# Text: Rat detrusor cells are isolated in a manner previously described for guinea-pig detrusor (Sheldon J H, Norton N W and Argentieri T M (1997) Inhibition of guinea pig detrusor contraction by NS-1619 is associated with activation of BKCa and inhibition of calcium currents. J Pharmacol Exp Thera 283(3): 1193–1200). Male Sprague-Dawley rats (Charles River, Wilmington, Mass.; 200–400 grams) are euthanized by CO2 inhalation and exsanguination. Their urinary bladders are rapidly removed and placed in 37° C. physiological solution with the following composition (mM): Na glutamate (80.0), NaCl (54.7), KCl (5.0), NaHCO3 (25.0), MgCl2.2H2O (2.5), D-glucose (11.8) and CaCl2 (0.2) gassed with O2—CO2, 95%/5% for a final pH of 7.4. The dome of the bladder is isolated from the trigone region and the mucosa is removed. This tissue is then cut into 2–3 mm wide strips and placed into fresh buffer for 1 hour. Tissues are then transferred into 10 ml of an isolation buffer containing the above composition plus collagenase type VIII (1.0 mg/ml) and pronase (0.25 mg/ml). After 10 minutes the isolation buffer is replaced with fresh isolation buffer for an additional 10 min. The tissue is then washed 3 times in fresh collagenase and pronase free solution and stored at room temperature until studied. Cells for study are prepared by triturating 1–2 pieces of detrusor tissue in 2 ml of fresh isolation buffer for 5 minutes with a polished Pasteur pipette, (tip diameter ˜1.5 mm) attached to a modified Harvard Respirator pump (Harvard Apparatus, Southnatic, Mass.) at a rate of 20×/min. with an approximate volume of 5 ml. Cells are then placed on a microscope stage in a temperature regulated tissue bath at 32.5° C. and continually superfused with PSS.
# Single cell recordings are performed with a List-Medical EPC-7 patch clamp amplifier (Adams & List Assoc., Westbury, N.Y.). Pipette electrodes had tip resistances of 2–4 MΩ and are filled with the following composition (mM): KCl (126.0), MgCl2.6H2O (4.5), ATP Mg salt (4.0), GTP tris salt (0.3), creatine PO4 (14.0), D-glucose (9.0), EGTA (9.0), HEPES (9.0). The pH is adjusted to 7.4 with KOH. Signals are acquired (3 kHz high frequency cut-off, 12 bit resolution) using a 586-based personal computer.
# Whole cell recordings are made using broken patch access. Currents are evoked using either voltage steps (Vh=−50; Vt=−60 to 40 mV) or voltage ramps (−60 to 40 mV at 3.3 mV/sec.). The exact voltage clamp protocols are well known in the art. After stability is achieved control currents are recorded. Next, test compound is added to the superfusate. Currents are recorded for 5 to 10 minutes or until compound effects reach steady state. This is followed either by washout or addition of antagonists (linopirdine, XE-991) to the superfusate. […]
smiles,measurement,value
"CCOC(=O)Nc1ccc(NCc2ccc(F)cc2)cc1N [retigabine, N-[2-amino-4-(4-fluorobenzylamino)-phenyl]carbamic acid ethyl ester]",effect on outward current,increase in outward current
